Assay results: article PMC10214751, “Poaceae‐specific β‐1,3;1,4‐D‐glucans link jasmonate signalling to OsLecRK1‐mediated defence response during rice‐brown planthopper interactions” (Plant Biotechnology Journal, 2023)

Molecular target: T1, OsLecRK1 (MBP-OsLecRK1-His) (Oryza sativa, UniProt Q7FAZ3)
T1 construct: gene LECRK1; recombinant MBP-OsLecRK1-His fusion, purified; MBP and His tags kept; RED-NHS labelled
T1 sequence (Q7FAZ3 20-813 limits assumed): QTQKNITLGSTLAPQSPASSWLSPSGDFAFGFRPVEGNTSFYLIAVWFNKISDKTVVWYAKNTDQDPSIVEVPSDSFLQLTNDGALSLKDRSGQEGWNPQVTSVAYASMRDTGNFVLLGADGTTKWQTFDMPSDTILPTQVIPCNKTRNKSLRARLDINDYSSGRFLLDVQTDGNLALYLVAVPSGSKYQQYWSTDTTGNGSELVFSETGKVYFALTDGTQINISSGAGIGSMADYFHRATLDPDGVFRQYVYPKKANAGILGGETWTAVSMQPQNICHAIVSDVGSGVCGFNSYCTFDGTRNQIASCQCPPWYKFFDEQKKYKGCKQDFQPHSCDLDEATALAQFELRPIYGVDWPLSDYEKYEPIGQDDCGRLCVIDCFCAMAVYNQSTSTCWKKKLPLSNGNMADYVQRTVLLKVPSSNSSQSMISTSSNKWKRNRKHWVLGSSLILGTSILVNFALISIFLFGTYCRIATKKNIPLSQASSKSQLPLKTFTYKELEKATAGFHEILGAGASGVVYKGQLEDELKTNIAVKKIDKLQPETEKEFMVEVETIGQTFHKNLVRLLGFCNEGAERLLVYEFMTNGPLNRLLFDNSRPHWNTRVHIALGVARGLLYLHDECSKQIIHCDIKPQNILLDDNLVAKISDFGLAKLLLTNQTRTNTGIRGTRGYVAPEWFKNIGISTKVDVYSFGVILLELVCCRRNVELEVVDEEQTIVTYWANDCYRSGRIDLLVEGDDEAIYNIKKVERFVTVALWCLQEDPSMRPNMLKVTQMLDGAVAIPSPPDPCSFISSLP
Experiment: microscale thermophoresis, RED-NHS labelled protein
Type: binding
Conditions: labelled protein in NHS buffer pH 8.2 (130 mM NaHCO3, 50 mM NaCl); ligand 1.5 nM to 50 μM
Description: microscale thermophoresis, RED-NHS labelled protein on OsLecRK1 (MBP-OsLecRK1-His) | MBP‐OsLecRK1‐His recombinant protein bound BGTRIA, BGTRIB, BGTETB, and BGTETC with high affinities

Compound	Kd
OC[C@H]1O[C@@H](O[C@@H]2[C@@H](O)[C@H](O[C@H]3[C@H](O)[C@@H](O)C(O)O[C@@H]3CO)O[C@H](CO)[C@H]2O)[C@H](O)[C@@H](O)[C@@H]1O (stereo partly drawn) [BGTRIA, 3^2‐β‐D‐glucosyl‐cellobiose]	0.34 µM
OC[C@H]1O[C@@H](O[C@H]2[C@H](O)[C@@H](O)[C@H](O[C@H]3[C@H](O)[C@@H](CO)OC(O)[C@@H]3O)O[C@@H]2CO)[C@H](O)[C@@H](O)[C@@H]1O (stereo partly drawn) [BGTRIB, 3^1‐β‐D‐cellobiosyl‐glucose]	0.6 µM
